Measurements: PMC10147685, “Safety, tolerability, and pharmacokinetics of Aurora kinase B inhibitor AZD2811: a phase 1 dose-finding study in patients with advanced solid tumours” (British Journal of Cancer, 2023)
Where two headings read alike, the source gives them in different places.

Experiments:
[1] = system: animal models of SCLC and diffuse large B-cell lymphoma (DLBCL); parameters: method as in PMID 26865565, PMID 30872381; conditions: at half the dose intensity of barasertib; cited from earlier work
[2] = Pharmacokinetics: AZD2811 whole blood concentrations and urine excretion; format: in vivo, human; conditions: for Cmax / AUC(0-t) / Tmax: human, whole blood; for Cmax: read-out: Geometric mean Cmax (CV%); for AUC(0-t): compartmental PK analysis, read-out: Geometric mean AUC(0–504h) (CV%); for Tmax: read-out: Median tmax (range)
Protocol: (§1) AEs were assessed throughout the treatment and follow-up periods. Patients were followed until all treatment-related toxicity resolved, or for at least 30 days post-study drug discontinuation. AEs were graded according to CTCAE v4.03. Venous blood samples (4 mL) for measurement of AZD2811 concentrations were collected at Cycle 1 Days 1–6, 8, 15, 16, and 22 and Cycle 2 Day 1 in Cohorts 1–6; Cycle 1 Days 1, 4, 8, 12, and 22 in Cohort 7; Cycle 1 Days 1, 4, 8, 12, and 15 and Cycle 2 Day 1 in Cohorts 8–12. Tumour imaging assessments using computed tomography or magnetic resonance imaging of the chest and abdomen/pelvis were performed at screening (≤28 days prior to initiation of treatment), and then every 2 cycles.
(§2) The safety analysis set comprised all patients who received at least one dose of AZD2811. The PK analysis set comprised all patients who received at least one dose of AZD2811 with at least one reportable concentration. […] There was no formal statistical analysis of safety and efficacy data. The numbers of patients experiencing each AE were summarised by Medical Dictionary for Regulatory Activities (MedDRA) version 22.1 system organ class, MedDRA preferred term, and CTCAE grade. The ORR and best overall response based on RECIST 1.1 were summarised. AZD2811 blood concentrations and derived PK parameters were summarised by dose regimen. Summary statistics were calculated for area under the curve (AUC), time of maximum concentration (tmax), and maximum concentration after a single dose (Cmax).
Compartmental PK analysis was used to derive AUC from time zero to the time of the last planned sampling time in the study (AUC0–504h). Cmax and tmax were derived using the standard non-compartmental approach. PK parameters of Cmax, tmax, and AUC0–504h are summarised by cohort in Supplementary Table 2, and geometric mean AZD2811 whole blood concentrations are presented by cohort in Fig. 3. Maximum AZD2811 whole blood concentrations were observed after the end of infusions (Days 1 and 4). […] There was evidence of a second and third phase, 96 and 264 h post-dose. […] Urine samples were only collected in the first four cohorts, and AZD2811 concentrations were below the limit of quantification in the majority (>80%). Consequently, only the total amount of unchanged AZD2811 excreted into urine over 0–72 h was calculated; the maximum amount excreted was 294.40 µg for a patient in Cohort 4 (51 mg AZD2811), which represented <1% of the dose.
Fig. 3 Geometric mean (±geoSD) AZD2811 whole blood concentrations. a For days 1 and 4 regimens and b for day 1 only regimens. In Cohorts 1–6, PK blood samples (4 mL per sample) for determination of AZD2811 blood concentrations were collected from all patients on Cycle 1 Day 1 pre-dose, and at 1, 2, 4, 6, 8, 24, and 48 h (±15 min for each time point) from the start of infusion, then on Cycle 1 Day 4 pre-dose, and at 1, 2, 4, 6, 8, and 24 h (day 5), 48 h (day 6), 96 h (day 8) from the start of infusion, and in the morning on days 15, 16, and 22. A Cycle 2 Day 1 pre-dose sample and a 2-h sample (end of infusion) were also obtained. In Cohorts 7–12, PK blood samples were collected from all patients on Cycle 1 Day 1 pre-dose, and at 1, 2, 4, 6, and 8 h from the start of infusion, and in the morning on Days 4, 8, 12, and 22. G-CSF granulocyte colony stimulating factor, PK pharmacokinetics, Q3W every 3 weeks, Q4W every 4 weeks.

advanced solid tumours = assay: Preliminary antitumour activity (RECIST v1.1 best overall response); format: in vivo, human
Protocol: as §1
The primary objective was to evaluate the safety profile and determine the MTD/RP2D and schedule of AZD2811 by assessing the incidence of DLTs, AEs, and abnormal laboratory test results. Secondary objectives were evaluation of PK parameters and preliminary assessment of antitumour activity, including objective response rate (ORR [complete response + partial response (CR + PR)]) based on RECIST v1.1, and incidence of best overall response, stable disease (SD) and progressive disease (PD).
as §2

[3] = intravenous, 15 mg, Cohort 1: 15 mg, Days 1 and 4, 28-day cycles, no G-CSF, N = 3
[4] = intravenous, 25 mg, Cohort 2: 25 mg, Days 1 and 4, 28-day cycles, no G-CSF, N = 3
[5] = intravenous, 38 mg, Cohort 3: 38 mg, Days 1 and 4, 28-day cycles, no G-CSF, N = 3
[6] = intravenous, 51 mg, Cohort 4: 51 mg, Days 1 and 4, 28-day cycles, no G-CSF, N = 3
[7] = intravenous, 100 mg, Cohort 5: 100 mg, Days 1 and 4, 28-day cycles, no G-CSF, N = 3
[8] = intravenous, 200 mg, Cohort 8: 200 mg, Day 1, 21-day cycles, optional G-CSF, N = 3
[9] = intravenous, 200 mg, Cohort 6: 200 mg, Days 1 and 4, 28-day cycles, no G-CSF, N = 9
[10] = intravenous, 200 mg, Cohort 7: 200 mg, Day 1, 28-day cycles, optional G-CSF, N = 4
[11] = intravenous, 400 mg, Cohort 9: 400 mg, Day 1, 21-day cycles, optional G-CSF, N = 7
[12] = intravenous, 500 mg, Cohort 12: 500 mg, Day 1, 21-day cycles, mandatory G-CSF, N = 6
[13] = intravenous, 600 mg, Cohort 11: 600 mg, Day 1, 21-day cycles, mandatory G-CSF, N = 3
[14] = over 0–72 h, a patient in Cohort 4 (51 mg AZD2811)

In the case of `CCN(CCO)CCCOc1ccc2c(Nc3cc(CC(=O)Nc4cccc(F)c4)n[nH]3)ncnc2c1` [AZD2811, AZD1152 hydroxyquinazoline pyrazole anilide], the “Efficacy and toxicity compared with barasertib” value [1] is listed as “greater efficacy and less toxicity”, the “Dose proportionality of PK” value ([2]; across the dose range evaluated (15–600 mg)) is listed as “broadly dose-proportional” and the “Urine samples with AZD2811 concentrations below the limit of quantification” value ([2]; first four cohorts) is listed as over 80%. For the same molecule, the “Duration of AZD2811 blood exposure” value ([2]; following a 2-h infusion on Day 1) was “sustained for several days”, the “End of gradual monophasic decline in concentration post-infusion” value ([2]; following a 2-h infusion on Day 1, second and third phase 96 and 264 h post-dose) was “approximately 96 h” and the Cmax ([2]; in vivo, Cohort 8: 200 mg, Day 1, 21-day cycles, optional G-CSF, N = 3) was 41400 ng/mL. For the same molecule, the AUC(0-t) [2, 3] was 362 µg·h/mL, the Cmax [2, 3] was 3900 ng/mL and the Tmax [2, 3] was 77 h. The AUC(0-t) [2, 4] was 658 µg·h/mL, the Cmax [2, 4] was 6700 ng/mL and the Tmax [2, 4] was 75 h. It also gave an AUC(0-t) [2, 5] of 917 µg·h/mL, a Cmax [2, 5] of 8900 ng/mL and a Tmax [2, 5] of 75 h. The AUC(0-t) [2, 6] was 1420 µg·h/mL, the Cmax [2, 6] was 14500 ng/mL and the Tmax [2, 6] was 78 h. It also gave an AUC(0-t) [2, 7] of 3670 µg·h/mL, a Cmax [2, 7] of 36800 ng/mL and a Tmax [2, 7] of 78 h. The AUC(0-t) ([2]; intravenous, 200 mg, Cohort 6: 200 mg, Days 1 and 4, 28-day cycles, no G-CSF, N = 8) was 6220 µg·h/mL, the AUC(0-t) ([2]; intravenous, 200 mg, Cohort 7: 200 mg, Day 1, 28-day cycles, optional G-CSF, N = 3) was 3020 µg·h/mL and the AUC(0-t) [2, 8] was 2750 µg·h/mL. For the same molecule, the Cmax [2, 9] was 58300 ng/mL, the Tmax [2, 9] was 74 h and the Cmax [2, 10] was 43400 ng/mL. The Tmax [2, 10] was 2 h, the Tmax [2, 8] was 4 h and the AUC(0-t) [2, 11] was 5440 µg·h/mL. The Cmax [2, 11] was 87300 ng/mL, the Tmax [2, 11] was 3 h and the AUC(0-t) ([2]; intravenous, 500 mg, Cohort 12: 500 mg, Day 1, 21-day cycles, mandatory G-CSF, N = 5) was 7840 µg·h/mL. For the same molecule, the Cmax [2, 12] was 93900 ng/mL, the Tmax [2, 12] was 6 h and the AUC(0-t) [2, 13] was 11600 µg·h/mL. For the same molecule, the Cmax [2, 13] was 138000 ng/mL, the Tmax [2, 13] was 6 h and the “Maximum amount excreted into urine as part of the dose” value [2, 14] was < 1 % of the dose. For the same molecule, the “Maximum amount of unchanged AZD2811 excreted into urine” value [2, 14] was 294.40 µg, the “Duration of SD” value (advanced solid tumours; 1 patient with cancer of pancreaticobiliary origin in Cohort 8) was 66 weeks and the “Treatment discontinuation due to progressive disease” value (advanced solid tumours; Cohorts 1–6) was 83.3%. For the same molecule, the “Treatment discontinuation due to progressive disease” value (advanced solid tumours; Cohorts 7–12) was 81.5%, the “Best overall response: Not evaluable” value (advanced solid tumours; Total (N = 51)) was 5 (9.8) n (%) and the “Best overall response: Not evaluable, Incomplete post-baseline assessments” value (advanced solid tumours; Total (N = 51)) was 4 (7.8) n (%). The “Best overall response: Not evaluable, Stable disease <2 cycles” value (advanced solid tumours; Total (N = 51)) was 1 (2.0) n (%), the “Best overall response: Progressive disease” value (advanced solid tumours; Total (N = 51)) was 22 (43.1) n (%) and the “Best overall response: Progressive disease, Death” value (advanced solid tumours; Total (N = 51)) was 3 (5.9) n (%). The “Best overall response: Progressive disease, RECIST progression” value (advanced solid tumours; Total (N = 51)) was 19 (37.3) n (%), the “Best overall response: Stable disease ≥2 cycles” value (advanced solid tumours; Total (N = 51), two cycles = 56 days in 28-day cycles, 42 days in 21-day cycles) was 23 (45.1) n (%) and the “Complete responses (CRs)” value (advanced solid tumours; all cohorts) was “no CRs”. The “Best overall response: partial response, patients” value (advanced solid tumours; all cohorts, n = 1 of 51) was 2.0%, the “Best overall response: Partial response” value (advanced solid tumours; evaluable-for-efficacy analysis set, Total (N = 51), all cohorts) was 1 (2.0) n (%) and the “Longest duration of therapy” value (advanced solid tumours; patient with adenocarcinoma of the breast in Cohort 7, best overall response SD) was over 17 months. For the same molecule, the “Reduction from baseline in sum of target lesion diameters” value (advanced solid tumours; patient with prostate cancer in Cohort 6 with a PR) was 80%.
